Experimental data: PMC6267684, “Pharmacokinetic evaluation of the PNC disassembler metarrestin in wild-type and Pdx1-Cre;LSL-Kras^G12D/+;Tp53^R172H/+ (KPC) mice, a genetically engineered model of pancreatic cancer” (Cancer Chemotherapy and Pharmacology, 2018)
Where “and” joins values, the source holds several entries; their conditions need not be identical. Equal values may be shown once. Read-outs that look alike come from different tables or passages of the source.

Assay: Pharmacokinetics in tumor-bearing KPC mice after 25 mg/kg single or multiple dose oral gavage
Assay type: in vivo
Details: for AUC(0-t): po; for Kp: read-out: AUC0–24h ratio (tissue/plasma)
Excerpt: Animals with three or more tumors per organ, pancreatic cysts or cystic tumors, signs of intestinal, pancreatic or gall bladder duct occlusions, or otherwise moribund/showing signs of dilapidation were excluded. Mice were randomized into treatment groups using their tumor volume and location inside pancreas, animal age, gender, and weight by an unbiased covariate randomization.
For pharmacokinetic studies, metarrestin solutions prepared in 30% PEG-400 and 70% (20% w:v HP-β-CD in water) solution were administered to C57BL/6 mice at 3 mg/kg IV via tail vein injection, or 3 and 10 mg/kg orally via gavage. KPC mice were additionally treated with 25 mg/kg PO via gavage. The dosing volume was 3 mL/kg for IV route and 10 mL/kg for PO route. Dosing solutions were prepared on the day of administration. Blood samples were collected at 10, 20 min, 1, 2, 4, 7 and 24 h after 3 mg/kg IV administration. After oral administration of 3 and 10 mg/kg in C57BL6 mice, blood and liver samples were collected at 10 min, 0.5, 1, 2, 3, 5, 7, 9 and 24 h post dosing (n = 3 per time point). In KPC mice, blood, pancreatic tumor, spleen and liver samples were collected at 1, 2, 3, 6, 9, 12 and 24 h after 25 mg/kg PO administration.
For the assessment of multiple dose (MD) pharmacokinetics, KPC mice were treated with daily PO administration of 25 mg/kg metarrestin for 14 days. Plasma (100–300 µL), pancreatic tumors, spleen and liver samples were collected at 0, 3, 6, 9, 12, 15, 24 and 48 h after last dose from three mice at each time point. Daily dosing was carried for 14 days, with the last dose administered at 9:00 a.m. on Day 14. To assess the steady-state concentration of metarrestin in KPC mice, animals were treated with drug-formulated chow for 14 days. To control for daily cycle changes in feeding behavior, 9:00 a.m. on day 0 was designated as the study start time, and 9:00 a.m. on Day 14 was designated as the 0 h time point for sample collection. Blood, pancreatic tumor, spleen and liver tissue were collected at 0, 3, 6, 9, 12, 15, and 24 h from three mice at each time point while the animals were continuously fed with metarrestin-formulated chow on Day 14. Additional controls included mice with a matched drug-free diet, with blood and tissue samples collected at the initial (t = 0) and two intermediate (t = 9 h, t = 24 h) time points.
Blood samples were collected in K2EDTA tubes and plasma was harvested after centrifugation at 3000 rpm for 10 min. Tissue samples were weighed and flash-frozen for PK and PD mRNA expression analyses, embedded into OCT blocks for PNC determination and processed into FFPE blocks for histopathology assessment. All PK samples were stored at − 80 °C until analysis.
An ultra-performance liquid chromatography–tandem mass spectrometry (UPLC–MS/MS) method was developed to determine metarrestin concentrations in plasma and tissue samples. Mass spectrometric analysis was performed on a Waters Xevo TQ-S triple quadrupole instrument using electrospray ionization in positive mode. The separation was performed on an Acquity BEH C18 column (50 × 2.1 mm, 1.7 µ) using a Waters Acquity UPLC system with 0.6 mL/min flow rate and gradient elution. Mobile phase A was 0.1% formic acid in water, and B was 0.1% formic acid in acetonitrile (ACN). The column temperature was maintained at 60 °C. The calibration standards and quality control (QC) samples were prepared in the control blank mouse plasma and tissue homogenate. Tissues were homogenized with 3 or 6 volumes (v/w) of deionized water on the day of analysis. Proteins were precipitated from 10 µL plasma or 5 µL tissue homogenate with 200 µL ACN containing 100 ng/mL Tolbutamide as internal standard in 96-well plates. The mixture was vortexed for 2 min and centrifuged at 4000 rpm for 30 min at 4 °C. An aliquot of 150 µL supernatant was transferred to a 350-µL 96-well plate. 0.2 µL supernatant was injected for the UPLC–MS/MS analysis. Data were analyzed using MassLynx V4.1. […]

[1] = KPC, mouse, pancreatic tumor, tumor, day 14, multiple PO doses 25 mg/kg/day
[2] = KPC, mouse, pancreatic tumor, tumor, single PO dose 25 mg/kg
[3] = KPC, mouse, liver, day 14, multiple PO doses 25 mg/kg/day
[4] = KPC, mouse, liver, single PO dose 25 mg/kg
[5] = KPC, mouse, plasma, day 14, multiple PO doses 25 mg/kg/day
[6] = KPC, mouse, plasma, single PO dose 25 mg/kg
[7] = KPC, mouse, spleen, day 14, multiple PO doses 25 mg/kg/day
[8] = KPC, mouse, spleen, single PO dose 25 mg/kg

Structure (SMILES): N=c1c2c(-c3ccccc3)c(-c3ccccc3)n(Cc3ccccc3)c2ncn1[C@H]1CC[C@H](O)CC1 [metarrestin, Trans-4-(7-benzyl-4-imino-5,6-diphenyl-4,7-dihydro-3H-pyrrolo[2,3-d]pyrimidin-3-yl) cyclohexanol]
- intratumor AUC0–24h (25 mg/kg PO gavage MD): 1,150,000 h ng/mL
- AUC(0-t) (KPC, mouse, liver, 25 mg/kg, liver, single PO dose 25 mg/kg, read-out: AUC0–24h): 536 µg·h/mL
- AUC(0-t) (KPC, mouse, liver, 25 mg/kg/day, liver, day 14, multiple PO doses 25 mg/kg/day, read-out: AUC0–24h): 987 µg·h/mL
- AUC(0-t) (KPC, mouse, liver, 25 mg/kg/day, liver, day 14, multiple PO doses 25 mg/kg/day, read-out: AUC0–48h): 1290 µg·h/mL
- Kp (KPC, mouse, pancreatic tumor / plasma, tumor/plasma, day 14, multiple PO doses 25 mg/kg/day): 37
- Kp (KPC, mouse, pancreatic tumor / plasma, tumor/plasma, single PO dose 25 mg/kg): 19
- AUC(0-t) (KPC, mouse, pancreatic tumor, 25 mg/kg, tumor, single PO dose 25 mg/kg, read-out: AUC0–24h): 232 µg·h/mL
- AUC(0-t) (KPC, mouse, pancreatic tumor, 25 mg/kg/day, tumor, day 14, multiple PO doses 25 mg/kg/day, read-out: AUC0–24h): 1150 µg·h/mL
- AUC(0-t) (KPC, mouse, pancreatic tumor, 25 mg/kg/day, tumor, day 14, multiple PO doses 25 mg/kg/day, read-out: AUC0–48h): 1810 µg·h/mL
- concentration at 24 h (KPC, mouse, pancreatic tumor, 24 h after single dose 25 mg/kg PO, read-out: intratumor concentration (mean)): 6200 ng/g and 13 µM
- AUC(0-inf) [1]: 2090 µg·h/mL
- Cmax [1]: 65000 ng/mL
- Tmax [1]: 6 h
- half-life [1]: 18 h
- Cmax [2]: 14000 ng/mL
- Tmax [2]: 6 h
- AUC(0-t) (KPC, mouse, plasma, 25 mg/kg, plasma, single PO dose 25 mg/kg, read-out: AUC0–24h): 12.1 µg·h/mL
- AUC(0-t) (KPC, mouse, plasma, 25 mg/kg/day, plasma, day 14, multiple PO doses 25 mg/kg/day, read-out: AUC0–24h): 31.5 µg·h/mL
- AUC(0-t) (KPC, mouse, plasma, 25 mg/kg/day, plasma, day 14, multiple PO doses 25 mg/kg/day, read-out: AUC0–48h): 38.4 µg·h/mL
- AUC(0-t) (KPC, mouse, spleen, 25 mg/kg, spleen, single PO dose 25 mg/kg, read-out: AUC0–24h): 396 µg·h/mL
- AUC(0-t) (KPC, mouse, spleen, 25 mg/kg/day, spleen, day 14, multiple PO doses 25 mg/kg/day, read-out: AUC0–24h): 959 µg·h/mL
- AUC(0-t) (KPC, mouse, spleen, 25 mg/kg/day, spleen, day 14, multiple PO doses 25 mg/kg/day, read-out: AUC0–48h): 1220 µg·h/mL
- Kp (KPC, mouse, liver/plasma, day 14, multiple PO doses 25 mg/kg/day): 31
- Kp (KPC, mouse, liver/plasma, single PO dose 25 mg/kg): 44
- AUC(0-inf) [3]: 1350 µg·h/mL
- Cmax [3]: 59500 ng/mL
- Tmax [3]: 6 h
- half-life [3]: 9.6 h
- AUC(0-inf) [4]: 653 µg·h/mL
- Cmax [4]: 34200 ng/mL
- Tmax [4]: 6 h
- half-life [4]: 9 h
- AUC(0-inf) [5]: 39.3 µg·h/mL
- Cmax [5]: 2000 ng/mL
- Tmax [5]: 3 h
- half-life [5]: 8.2 h
- AUC(0-inf) [6]: 14.4 µg·h/mL
- Cmax [6]: 810 ng/mL
- Tmax [6]: 6 h
- half-life [6]: 8.5 h
- Kp (KPC, mouse, spleen/plasma, day 14, multiple PO doses 25 mg/kg/day): 30
- Kp (KPC, mouse, spleen/plasma, single PO dose 25 mg/kg): 33
- AUC(0-inf) [7]: 1250 µg·h/mL
- Cmax [7]: 62400 ng/mL
- Tmax [7]: 6 h
- half-life [7]: 8.2 h
- AUC(0-inf) [8]: 495 µg·h/mL
- Cmax [8]: 25000 ng/mL
- Tmax [8]: 6 h
- half-life [8]: 9.7 h
- AUC0–24h (liver, MD 25 mg/kg/day PO): 987,000 ng h/g
- AUC0–24h (liver, SD 25 mg/kg PO): 536,000 ng h/g
- AUC0–24h (tumor, MD 25 mg/kg/day PO): 1,150,000 ng h/g
- AUC0–24h (tumor, SD 25 mg/kg PO): 232,000 ng h/g
